US12077503B2, “Substituted cyclic amides and their use as herbicides” (FMC CORPORATION, priority 2015, dated 2024)

What was measured:
Assay type in all cases: in vivo
[1] = tested on: barnyardgrass (Echinochloa crus-galli); assay: Test G Pre-Emergence Protocol; details: evaluated after 13 days
Method: (§1) Seeds of corn (Zea mays), giant foxtail (Setaria faberi), barnyardgrass (Echinochloa crus-galli), ivy-leaved morning glory (Ipomoea hederacea), redroot pigweed (Amaranthus retroflexus) and velvetleaf (Abutilon theophrasti) were sown in standard soil in pots. After cultivation for one day under controlled conditions in a glasshouse (at 24/16° C., day/night; 14 hours light; 65% humidity), the plants were sprayed with an aqueous spray solution derived from the formulation of the technical active ingredient in acetone/water (50:50) solution containing 0.5% Tween 20 (polyoxyethylene sorbitan monolaurate, CAS RN 9005-64-5) to give a final dose of 15.625, 62.5 or 250 g/ha of test compound.
(§2) The test plants were then grown on under controlled conditions in a glasshouse (at 24/16° C., day/night; 14 hours light; 65% humidity) and watered twice daily. After 13 days the test was evaluated (100=total damage to plant; 0=no damage to plant). A dash (-) means no test result.

corn (Zea mays) [2] = assay: Test G Pre-Emergence Protocol; details: evaluated after 13 days
Method: as §1, §2

[3] = tested on: giant foxtail (Setaria faberi); assay: Test G Pre-Emergence Protocol; details: evaluated after 13 days
Method: as §1, §2

[4] = tested on: ivy-leaved morning glory (Ipomoea hederacea); assay: Test G Pre-Emergence Protocol; details: evaluated after 13 days
Method: as §1, §2

[5] = tested on: redroot pigweed (Amaranthus retroflexus); assay: Test G Pre-Emergence Protocol; details: evaluated after 13 days
Method: as §1, §2

[6] = tested on: velvetleaf (Abutilon theophrasti); assay: Test G Pre-Emergence Protocol; details: evaluated after 13 days
Method: as §1, §2

[7] = tested on: barnyardgrass (Echinochloa crus-galli); assay: Test G Post-Emergence Protocol
Method: as §1, with “8 days” for “one day”
as §2

corn (Zea mays) [8] = assay: Test G Post-Emergence Protocol
Method: as §1, with “8 days” for “one day”
as §2

[9] = tested on: giant foxtail (Setaria faberi); assay: Test G Post-Emergence Protocol
Method: as §1, with “8 days” for “one day”
as §2

[10] = tested on: ivy-leaved morning glory (Ipomoea hederacea); assay: Test G Post-Emergence Protocol
Method: as §1, with “8 days” for “one day”
as §2

[11] = tested on: redroot pigweed (Amaranthus retroflexus); assay: Test G Post-Emergence Protocol
Method: as §1, with “8 days” for “one day”
as §2

[12] = tested on: velvetleaf (Abutilon theophrasti); assay: Test G Post-Emergence Protocol
Method: as §1, with “8 days” for “one day”
as §2

[13] = 62.5 g ai/ha, 100=total damage to plant, 0=no damage to plant
[14] = 15.625 g ai/ha, evaluated after 13 days (100=total damage to plant; 0=no damage to plant)
[15] = 62.5 g ai/ha, evaluated after 13 days
[16] = 250 g ai/ha, evaluated after 13 days
[17] = 62.5 g ai/ha, evaluated after 13 days, 100=total damage to plant, 0=no damage to plant
[18] = 250 g ai/ha, evaluated after 13 days, 100=total damage to plant, 0=no damage to plant

| Compound | Barnyardgrass damage rating (100=total damage to plant; 0=no damage to plant) ([1]; 15.625 g ai/ha) | plant damage rating, Barnyardgrass [1, 13] | Barnyardgrass damage rating (100=total damage to plant; 0=no damage to plant) ([1]; 250 g ai/ha) | Corn damage rating (100=total damage to plant; 0=no damage to plant) (corn (Zea mays) [2]; 15.625 g ai/ha) | plant damage rating, Corn (corn (Zea mays) [2]; [13]) | Corn damage rating (100=total damage to plant; 0=no damage to plant) (corn (Zea mays) [2]; 250 g ai/ha) | Foxtail, Giant damage rating (100=total damage to plant; 0=no damage to plant) ([3]; 15.625 g ai/ha) | plant damage rating, Foxtail, Giant [3, 13] | Foxtail, Giant damage rating (100=total damage to plant; 0=no damage to plant) ([3]; 250 g ai/ha) | Morningglory, Ivy-leaved damage rating (100=total damage to plant; 0=no damage to plant) ([4]; 250 g ai/ha) | Pigweed, Redroot damage rating (100=total damage to plant; 0=no damage to plant) ([5]; 15.625 g ai/ha) | Pigweed, Redroot damage rating (100=total damage to plant; 0=no damage to plant) ([5]; 250 g ai/ha) | Velvetleaf damage rating (100=total damage to plant; 0=no damage to plant) ([6]; 15.625 g ai/ha) | Velvetleaf damage rating (100=total damage to plant; 0=no damage to plant) ([6]; 250 g ai/ha) | Barnyardgrass damage rating [7, 14] | Corn damage rating (corn (Zea mays) [8]; [14]) | Foxtail, Giant damage rating [9, 14] | Morningglory, Ivy-leaved damage rating [10, 14] | Pigweed, Redroot damage rating [11, 14] | Velvetleaf damage rating [12, 14] | other results |
| --- | --- | --- | --- | --- | --- | --- | --- | --- | --- | --- | --- | --- | --- | --- | --- | --- | --- | --- | --- | --- | --- |
| CN1CC(c2ccc(C(F)(F)F)cc2)C(C(=O)Nc2cccc(Cl)c2[N+](=O)[O-])C1=O (racemic) [Compound 1639] | 0 | 10 | 30 | 0 | 0 | 0 | 30 | 60 | 80 | 0 | 0 | 30 | 0 | 0 | 10 | 0 | 30 | 0 | 0 | 0 | Morning-glory, Ivy-leaved damage rating (100=total damage to plant; 0=no damage to plant) ([4]; 15.625 g ai/ha): 0; plant damage rating, Morningglory, Ivy-leaved [4, 13]: 0; plant damage rating, Pigweed, Redroot [5, 13]: 20; plant damage rating, Velvetleaf [6, 13]: 0; Barnyardgrass damage rating (100=total damage to plant; 0=no damage to plant) [7, 15]: 30; damage to plant, Barnyardgrass (100=total damage to plant; 0=no damage to plant) [7, 16]: 60; Corn damage rating (100=total damage to plant; 0=no damage to plant) (corn (Zea mays) [8]; [15]): 0; damage to plant, Corn (100=total damage to plant; 0=no damage to plant) (corn (Zea mays) [8]; [16]): 10; Foxtail, Giant damage rating (100=total damage to plant; 0=no damage to plant) [9, 15]: 70; damage to plant, Foxtail, Giant (100=total damage to plant; 0=no damage to plant) [9, 16]: 80; Morningglory, Ivy-leaved damage rating (100=total damage to plant; 0=no damage to plant) [10, 15]: 10; damage to plant, Morningglory, Ivy-leaved (100=total damage to plant; 0=no damage to plant) [10, 16]: 20; Pigweed, Redroot damage rating (100=total damage to plant; 0=no damage to plant) [11, 15]: 20; damage to plant, Pigweed, Redroot (100=total damage to plant; 0=no damage to plant) [11, 16]: 60; Velvetleaf damage rating (100=total damage to plant; 0=no damage to plant) [12, 15]: 0; damage to plant, Velvetleaf (100=total damage to plant; 0=no damage to plant) [12, 16]: 20 |
| Cc1cccc(NC(=O)[C@H]2C(=O)N(C)C[C@@H]2c2ccc(C(F)(F)F)cc2)c1S(C)(=O)=O (racemic) [Compound 1677] | 0 | – | 10 | 0 | – | 0 | 10 | – | 70 | 0 | 0 | 0 | 0 | 0 | 0 | 0 | 10 | 0 | 0 | 0 | Barnyardgrass damage rating [1, 13]: 0; Corn damage rating (corn (Zea mays) [2]; [13]): 0; Foxtail, Giant damage rating [3, 13]: 40; Morningglory, Ivy-leaved damage rating (100=total damage to plant; 0=no damage to plant) ([4]; 15.625 g ai/ha): 0; Morningglory, Ivy-leaved damage rating [4, 13]: 0; Pigweed, Redroot damage rating [5, 13]: 0; Velvetleaf damage rating [6, 13]: 0; Barnyardgrass damage rating [7, 17]: 10; Barnyardgrass damage rating [7, 18]: 10; Corn damage rating (corn (Zea mays) [8]; [17]): 0; Corn damage rating (corn (Zea mays) [8]; [18]): 0; Foxtail, Giant damage rating [9, 17]: 30; Foxtail, Giant damage rating [9, 18]: 50; Morningglory, Ivy-leaved damage rating [10, 17]: 0; Morningglory, Ivy-leaved damage rating [10, 18]: 0; Pigweed, Redroot damage rating [11, 17]: 0; Pigweed, Redroot damage rating [11, 18]: 0; Velvetleaf damage rating [12, 17]: 0; Velvetleaf damage rating [12, 18]: 0 |
| Cc1nc(Cl)ccc1[C@@H]1CN(C)C(=O)[C@H]1C(=O)Nc1cccc(F)c1F [Compound 1463] | 10 | 50 | 90 | 0 | 0 | 0 | 0 | 70 | 90 | 0 | 0 | 0 | 0 | 0 | 0 | 0 | 0 | 0 | 0 | 0 | Morning-glory, Ivy-leaved damage rating (100=total damage to plant; 0=no damage to plant) ([4]; 15.625 g ai/ha): 0; plant damage rating, Morningglory, Ivy-leaved [4, 13]: 0; plant damage rating, Pigweed, Redroot [5, 13]: 0; plant damage rating, Velvetleaf [6, 13]: 0; Barnyardgrass damage rating (100=total damage to plant; 0=no damage to plant) [7, 15]: 0; damage to plant, Barnyardgrass (100=total damage to plant; 0=no damage to plant) [7, 16]: 30; Corn damage rating (100=total damage to plant; 0=no damage to plant) (corn (Zea mays) [8]; [15]): 10; damage to plant, Corn (100=total damage to plant; 0=no damage to plant) (corn (Zea mays) [8]; [16]): 10; Foxtail, Giant damage rating (100=total damage to plant; 0=no damage to plant) [9, 15]: 0; damage to plant, Foxtail, Giant (100=total damage to plant; 0=no damage to plant) [9, 16]: 70; Morningglory, Ivy-leaved damage rating (100=total damage to plant; 0=no damage to plant) [10, 15]: 0; damage to plant, Morningglory, Ivy-leaved (100=total damage to plant; 0=no damage to plant) [10, 16]: 20; Pigweed, Redroot damage rating (100=total damage to plant; 0=no damage to plant) [11, 15]: 10; damage to plant, Pigweed, Redroot (100=total damage to plant; 0=no damage to plant) [11, 16]: 10; Velvetleaf damage rating (100=total damage to plant; 0=no damage to plant) [12, 15]: 10; damage to plant, Velvetleaf (100=total damage to plant; 0=no damage to plant) [12, 16]: 20 |
